Here are results for 4 molecules from patent US20250064761A1, “SUBSTITUTED BENZAMIDES AND THEIR USE IN THERAPY” (PHARMACYL AB, priority 2018, published 2025).

In assay [1] the test system is LPS-induced TNF-production in RAW264.7 murine macrophage cells. As to the kind of experiment: Suppression of LPS-induced TNF-α production in macrophages (ELISA). Type of assay: cell-based. As to conditions: Mus musculus, RAW264.7, read-out: % Inhibition of TNF-production. As to the method: The RAW264.7 macrophage line was maintained in DMEM supplemented with 5% FBS at 37° C. in a 5% CO2-humidified air environment. The RAW264.7 cells were seeded in 96-well plates at a density of 1×10^5/ml and a volume of 200 μl/well. The cells were incubated for 24 h in medium supplemented with 10% FBS and were then pre-incubated with or without the indicated concentrations of test substances for 2 h prior to the addition of LPS (1 μg/ml). The supernatants were subsequently harvested at various time points and production of the proinflammatory cytokine TNF-α in the culture medium was determined using a commercially available enzyme-linked immunosorbent assay (ELISA) kit according to the manufacturer's protocol.
Effects of some AABZs of the invention at 1 mM on LPS-induced TNF-production in RAW264.7 murine macrophage cells are shown in Table 2.
Background: In an ELISA, binding on a coated surface is turned into a signal by an enzyme label.

For assay [2], the system named is DSS induced colitis in Balb/c mice. Nature of the assay: Dextran sulfate sodium (DSS) induced inflammatory bowel disease in mice. Type of assay: in vivo. Set-up: key to Blood in the Stool score LS means ± SE: 0 = normal, 2 = Hemoccult+, 4 = gross bleeding; key to Disease Activity Index LS means ± SE: sum of stool, blood and weight-loss scores (each 0-4), max 12. As for the experimental part: The experiment was performed using 6- to 8-week old female Balb/c mice after a one-week acclimatization period. The mice weighed 18-25 g, were purchased from Taconic (Denmark) and were maintained in a temperature and light-controlled facility with free access to standard rodent chow and water. Mice were randomized to the respective groups five days before start of treatment and were kept 5 to 6 animals […] per cage. […] The DSS intake was assessed daily. SASP (from Sigma-Aldrich, Sweden) was first dissolved in 0.2 M sodium hydroxide (NaOH) at a concentration higher than the required final concentration. Phosphate buffered saline (PBS) was added to the desired concentration and the pH was adjusted to 7.5-8.0 with NaOH or hydrochloric acid. SASP remained completely dissolved at this pH. Cpd A was dissolved in PBS to the desired concentration. All animal groups had free access to 5% DSS water solution for the entire test period. Treatments were administered from day 0 to day 5, either orally by gavage (SASP) or intraperitoneally (Cpd A), and in an administration volume of 5 ml/kg, twice daily with approximately an 8-hour interval. The control group (DSS only) received water (0.2 ml) orally twice daily.
The parameters recorded in the experiment were stool consistency (0, normal; 2, loose stools; 4, watery diarrhoea), occurrence of blood in the stool (0, normal; 2, Hemoccult+; 4, gross bleeding), and body weight loss (0, none; 1, 1-5%; 2, 5-10%; 3, 10-20%; 4, >20%). Disease activity index (DAI) was calculated by summarizing the scores of these three parameters. Also the colon length and the colonic content of myeloperoxidase (MPO) were recorded. Data was statistically evaluated with analysis of variance (ANOVA). Least-squares means (LS means), and standard error (SE) of LS means were calculated.

The target of the next assay is dopamine D2 receptor (Rattus norvegicus, UniProt P61169). Type of assay: binding. As to conditions: in vitro; 125I-spiperone.
dopamine D2 receptor, sequence (P61169 whole entry, looked up): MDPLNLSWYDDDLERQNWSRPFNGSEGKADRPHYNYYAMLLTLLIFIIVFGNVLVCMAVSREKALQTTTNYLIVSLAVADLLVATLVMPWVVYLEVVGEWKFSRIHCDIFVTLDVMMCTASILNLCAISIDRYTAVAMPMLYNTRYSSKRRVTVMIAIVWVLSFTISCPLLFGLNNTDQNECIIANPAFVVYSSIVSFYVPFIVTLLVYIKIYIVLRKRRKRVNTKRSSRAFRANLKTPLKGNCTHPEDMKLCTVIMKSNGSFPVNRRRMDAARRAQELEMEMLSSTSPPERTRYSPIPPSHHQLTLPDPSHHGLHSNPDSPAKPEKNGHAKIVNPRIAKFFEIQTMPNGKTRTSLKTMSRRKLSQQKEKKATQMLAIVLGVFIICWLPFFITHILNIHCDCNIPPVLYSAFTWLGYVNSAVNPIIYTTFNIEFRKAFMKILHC
In assay [3] the test system is collagen-induced arthritis in DBA/1 mice. As to the kind of experiment: Collagen-induced arthritis. Type of assay: in vivo. As to conditions: 200 mg/kg/day in drinking water from day 14 to day 49. As for the experimental part: The experiment was performed using 9-week old male DBA/1 mice after a two-week acclimatization period. The mice were purchased from B&M (Denmark), and were maintained in a temperature and light-controlled facility with free access to standard rodent chow and water. Following the acclimatization period, the mice (10 per treatment group) were anesthesized with Enflurane and immunized intradermally in the base of the tail with […] of a 1:1 emulsion consisting of Freund's Complete Adjuvant H37Ra (Difco) and 2 mg/mL bovine type II collagen (Elastin Products, Owensville, MO) in 0.1 M acetic acid. On day 14 post-immunization, the mice were given ad lib access to drinking water containing Cpd A, with treatment continuing daily until termination of the experiment (day 49). The Cpd A intake was monitored by weighing the drinking bottles at the water renewal twice per week. The control group received water ad lib.
The mice were monitored for clinical signs of arthritis three times a week from immunization to day 49. […] The four measurements were summed for each mouse, and group averages were calculated. Mice with a score >12 were sacrificed. In the scoring protocol, the last observation carried forward (LOCF) method was used.
Mean onset day was defined as the mean day of onset in mice being affected. […]
Statistical significance was determined using Mann-Whitney Rank Sum test. […]

Structures can show the parent of a compound that is named as a salt.

In general, inhibition refers to the relative decrease from the control value, in per cent. As to `CCC(=O)Nc1ccc(C(=O)NCCN(CC)CC)cc1Cl` [4-Propanoylamino-3-chloro-N-[2-(diethylamino)ethyl]benzamide hydrochloride], the inhibition at 1000 µM in assay [1] was found to be 50%.
On to `CCN(CC)CCNC(=O)c1ccc(NC(=O)C(C)C)c(Cl)c1` [4-Isobutyrylamino-3-chloro-N-[2-(diethylamino)ethyl]benzamide hydrochloride], for which the inhibition at 1000 µM in assay [1] was found to be 63%.
`CCN(CC)CCNC(=O)c1ccc(NC(C)=O)c(Cl)c1` [Cpd A, 4-Acetamido-3-chloro-N-[2-(diethylamino)ethyl]benzamide hydrochloride]: in assay [2] (Cpd A 100 mg/kg/day bid ip vs SASP 40 mg/kg/day bid po, p<0.016), the “Disease Activity Index score reduction by Cpd A versus SASP treatment” value was 60%. In addition, in assay [2] (day 5, 50 mg/kg/day bid ip), the “Blood in the Stool Percent Reduction of Score vs control” value (from here on “Blood in the Stool Percent Reduction”) was 9%, the “Blood in the Stool score LS means ± SE” value is 2.2 ± 0.3, the “Disease Activity Index LS means ± SE” value is on record as 6.4 ± 0.5 and the “Disease Activity Index Percent Reduction of Score vs control” value (“Disease Activity Index Percent Reduction” for short) is reported as 7%. Besides, in assay [2] (day 5, 100 mg/kg/day bid ip), the “Blood in the Stool Percent Reduction” value is 96%, the “Disease Activity Index LS means ± SE” value is given as 1.7 ± 1.0 and the “Disease Activity Index Percent Reduction” value is recorded as 75%. Moreover, the “Blood in the Stool score LS means ± SE” value in assay [2] (day 5, 100 mg/kg/day bid ip, hydrochloride) was 0.1±0.5. For the same molecule, the inhibition at 1000 µM in assay [1] was found to be 45%. For the same molecule, on dopamine D2 receptor, the “affinity for the dopamine D2 subtype receptor (in words)” value is on record as “very low affinity”. In assay [3] (p=0.02), the “delay of mean onset of disease compared to the control group” value is 5.8 days. Also, the “reduction of severity of arthritis score compared to the control group” value in assay [3] (p=0.05) worked out at 1.6.
On to `O=C(O)c1cc(/N=N/c2ccc(S(=O)(=O)Nc3ccccn3)cc2)ccc1O` [SASP, sulfasalazine, reference compound], for which the “frequency of diarrhoea (stool consistency score of 2 and 4)” value in assay [2] (day 3, 40 mg/kg/day bid po) was found to be 8%. In addition, in assay [2] (day 5, 40 mg/kg/day bid po), the “Blood in the Stool Percent Reduction” value was 42%, the “Blood in the Stool score LS means ± SE” value is 1.4±0.2, the “Disease Activity Index LS means ± SE” value is reported as 4.4 ± 0.4 and the “Disease Activity Index Percent Reduction” value stood at 36%. In addition, the “frequency of diarrhoea (stool consistency score of 2 and 4)” value in assay [2] (day 5, 40 mg/kg/day bid po) is given as 71%.
